According to ChEMBL document CHEMBL5625247, “Tetrahydro-β-carboline derivatives as potent histone deacetylase 6 inhibitors with broad-spectrum antiproliferative activity” (Eur J Med Chem, 2023):

Legend:
Histone deacetylase 1 [1] = molecular target: T1, Histone deacetylase 1 (Homo sapiens, UniProt Q13547); assay: Inhibition of HDAC1 (unknown origin) expressed in baculovirus infected in Sf9 cells using RHKKAc as substrate preincubated for 5 to 10 mins followed by substrate addition measured after 2 hrs by fluorescence based assay
RPMI-8226 = assay: cells; assay type: functional, cell-based; details: Homo sapiens, RPMI-8226, 72 h
[2] = molecular target: T2, Protein deacetylase HDAC6 (Homo sapiens, UniProt Q9UBN7); assay: Inhibition of HDAC6 (unknown origin) expressed in baculovirus infected in Sf9 cells using RHKKAc as substrate preincubated for 5 to 10 mins followed by substrate addition measured after 2 hrs by fluorescence based assay
T2 sequence (Q9UBN7 whole entry): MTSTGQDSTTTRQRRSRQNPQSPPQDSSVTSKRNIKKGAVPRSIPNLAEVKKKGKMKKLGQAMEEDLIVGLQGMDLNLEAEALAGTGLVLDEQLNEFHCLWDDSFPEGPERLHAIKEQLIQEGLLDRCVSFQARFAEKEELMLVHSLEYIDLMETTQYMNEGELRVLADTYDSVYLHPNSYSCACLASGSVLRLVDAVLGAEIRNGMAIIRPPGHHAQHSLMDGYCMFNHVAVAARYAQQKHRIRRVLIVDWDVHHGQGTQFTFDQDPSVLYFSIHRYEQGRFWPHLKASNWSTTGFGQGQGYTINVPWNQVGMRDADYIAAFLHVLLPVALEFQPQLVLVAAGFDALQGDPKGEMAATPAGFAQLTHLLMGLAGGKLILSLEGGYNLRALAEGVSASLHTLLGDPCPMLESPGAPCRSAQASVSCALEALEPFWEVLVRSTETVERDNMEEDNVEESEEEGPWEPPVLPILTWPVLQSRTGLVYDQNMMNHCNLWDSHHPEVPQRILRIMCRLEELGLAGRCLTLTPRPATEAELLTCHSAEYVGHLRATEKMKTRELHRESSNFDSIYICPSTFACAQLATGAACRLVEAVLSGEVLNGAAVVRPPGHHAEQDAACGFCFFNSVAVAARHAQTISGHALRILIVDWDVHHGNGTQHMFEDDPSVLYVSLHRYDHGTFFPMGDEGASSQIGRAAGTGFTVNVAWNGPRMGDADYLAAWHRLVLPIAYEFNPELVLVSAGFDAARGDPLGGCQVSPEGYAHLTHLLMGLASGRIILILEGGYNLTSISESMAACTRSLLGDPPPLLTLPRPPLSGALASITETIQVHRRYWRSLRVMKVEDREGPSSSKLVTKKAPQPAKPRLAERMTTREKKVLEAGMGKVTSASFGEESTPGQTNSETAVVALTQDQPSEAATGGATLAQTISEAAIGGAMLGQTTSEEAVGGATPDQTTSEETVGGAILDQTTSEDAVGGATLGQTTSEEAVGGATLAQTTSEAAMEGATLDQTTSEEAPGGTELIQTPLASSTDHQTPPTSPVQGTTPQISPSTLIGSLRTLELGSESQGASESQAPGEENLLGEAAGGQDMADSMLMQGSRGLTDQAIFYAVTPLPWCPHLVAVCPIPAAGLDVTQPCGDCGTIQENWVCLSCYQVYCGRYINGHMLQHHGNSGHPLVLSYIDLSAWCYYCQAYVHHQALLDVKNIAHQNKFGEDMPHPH

[3] = molecular target: T3, Protein deacetylase HDAC6 (Homo sapiens) (UniProt Q9UBN7); assay: Inhibition of HDAC6 (unknown origin) expressed in baculovirus infected in Sf9 cells using RHKKAc as substrate at 500 nM preincubated for 5 to 10 mins followed by substrate addition measured after 2 hrs by fluorescence based assay relative to control; details: time 5-130 min
T3 sequence (whole entry): T2 sequence (Q9UBN7 whole entry)

Histone deacetylase 1 [4] = molecular target: T1, Histone deacetylase 1; assay: Inhibition of HDAC1 (unknown origin) expressed in baculovirus infected in Sf9 cells using RHKKAc as substrate at 500 nM preincubated for 5 to 10 mins followed by substrate addition measured after 2 hrs by fluorescence based assay relative to control; details: time 5-130 min

T1 sequence (Q13547 whole entry): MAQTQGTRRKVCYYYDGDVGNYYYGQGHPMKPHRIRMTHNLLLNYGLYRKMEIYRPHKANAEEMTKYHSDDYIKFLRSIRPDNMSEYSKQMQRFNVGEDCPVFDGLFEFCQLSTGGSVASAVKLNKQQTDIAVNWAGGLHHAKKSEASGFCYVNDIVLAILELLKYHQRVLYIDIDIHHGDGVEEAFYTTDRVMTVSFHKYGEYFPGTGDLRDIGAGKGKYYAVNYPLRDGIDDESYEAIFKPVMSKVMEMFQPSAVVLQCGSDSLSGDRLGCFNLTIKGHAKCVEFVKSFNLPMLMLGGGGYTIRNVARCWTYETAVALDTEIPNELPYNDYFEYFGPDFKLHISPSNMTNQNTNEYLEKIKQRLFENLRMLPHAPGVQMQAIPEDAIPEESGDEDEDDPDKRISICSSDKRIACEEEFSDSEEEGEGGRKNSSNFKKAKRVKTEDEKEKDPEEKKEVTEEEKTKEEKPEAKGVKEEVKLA

Row | Structure (SMILES) | IC50 (Histone deacetylase 1 [1]) [nM] | IC50 (RPMI-8226) [nM] | IC50 [2] [nM] | inhibition [3] [%] | inhibition (Histone deacetylase 1 [4]) [%]
1 | O=C(NO)c1ccc(CNC(=O)[C@H]2Cc3c([nH]c4ccccc34)[C@H](C3CC3)N2Cc2ccc(Cl)cc2)cc1 | 184 |  | 10.5 |  | 
2 | COc1ccc([C@@H]2N[C@H](C(=O)NCc3ccc(C(=O)NO)cc3)Cc3c2[nH]c2ccccc32)cc1 |  |  |  | 87.1 | 30.6
3 | COc1ccc(CN2Cc3[nH]c4ccccc4c3C[C@@H]2C(=O)NCc2ccc(C(=O)NO)cc2)cc1 |  |  |  | 83.4 | 32
4 | COc1ccc(CN2[C@H](C(=O)NCc3ccc(C(=O)NO)cc3)Cc3c([nH]c4ccccc34)[C@H]2C2CC2)cc1 | 1680 |  |  |  | 43.2
5 | COc1ccc(C[C@H]2N[C@H](C(=O)NCc3ccc(C(=O)NO)cc3)Cc3c2[nH]c2ccccc32)cc1 |  |  |  | 81.5 | 38.1
6 | COc1ccc([C@H]2N[C@@H](C(=O)NCc3ccc(C(=O)NO)cc3)Cc3c2[nH]c2ccccc32)cc1 |  |  |  | 82.3 | 35.8
7 | COc1ccc([C@H]2N[C@H](C(=O)NCc3ccc(C(=O)NO)cc3)Cc3c2[nH]c2ccccc32)cc1 | 494 |  | 3.75 | 98.7 | 71.4

Second part, the compound after the results:

Row | IC50 (Histone deacetylase 1 [1]) [nM] | IC50 (RPMI-8226) [nM] | IC50 [2] [nM] | inhibition [3] [%] | inhibition (Histone deacetylase 1 [4]) [%] | Structure (SMILES)
8 | 78 | 900 |  |  |  | COc1ccc([C@@H]2N[C@@H](C(=O)NCc3ccc(C(=O)NO)cc3)Cc3c2[nH]c2ccccc32)cc1OC
9 | 38 | 830 | 4.36 |  |  | O=C(NO)c1ccc(CNC(=O)[C@H]2Cc3c([nH]c4ccccc34)[C@H](C3CC3)N2)cc1
10 | 51.5 |  | 2.34 | 96.4 | 90.6 | COc1ccc([C@@H]2N[C@@H](C(=O)NCc3ccc(C(=O)NO)cc3)Cc3c2[nH]c2ccccc32)cc1
11 | 42.3 | 580 | 2.1 |  |  | O=C(NO)c1ccc(CNC(=O)[C@H]2Cc3c([nH]c4ccccc34)[C@H](c3ccccc3)N2)cc1
12 | 40.5 | 680 | 2.53 |  |  | O=C(NO)c1ccc(CNC(=O)[C@H]2Cc3c([nH]c4ccccc34)[C@H](C3CCCC3)N2)cc1
13 | 125 |  | 8.84 |  |  | COc1ccc(CN2[C@@H](C(=O)NCc3ccc(C(=O)NO)cc3)Cc3c([nH]c4ccccc34)[C@@H]2C)cc1
14 | 106 |  |  |  |  | O=C(NO)c1ccc(CNC(=O)[C@H]2Cc3c([nH]c4ccccc34)[C@H](c3ccc(Cl)cc3)N2CC2CC2)cc1
